Reference: PMC4965013, “Open Source Drug Discovery with the Malaria Box Compound Collection for Neglected Diseases and Beyond” (PLoS Pathogens, 2016)

What was measured:
[1] = system: P. falciparum 3D7 trophozoites; experiment: Metabolomic fingerprint profiling LC-MS; assay type: cell-based, Plasmodium falciparum; design: UDP-D-glucose / ADP-D-glucose: unit not given here; conditions: for Acetyllysine / N-acetyl-L-ornithine / N-carbamoyl-L-aspartate / NADPH / dAMP / dCMP / dTDP / dTMP / dTTP / dihydroorotate / orotate / DLH / DLS/SDL/SID / PD / PEE / PVNF / 3-phosphoglycerate / ADP-D-glucose / ATP / CDP / D-sedoheptulose-1/7-phosphate / FAD / GMP / NAD+ / NADP+ / Octoluse Bisphosphate / Pyroglutamic acid / UDP-D-glucose / UDP-D-glucuronate / UDP-N-acetyl-glucosamine / UDP / UMP / UTP / a-ketoglutarate / citrate/isocitrate / cytidine / dATP / dGMP/AMP / fumarate / glucose-1/6-phosphate / glycerate / guanine / guanosine / hypoxanthine / indole / inosine / nicotinate / ornithine / phosphoenolpyruvate / pyruvate / ribose-phosphate / sarcosine/alanine / sn-glycerol-3-phosphate / succinate/methylmalonic acid / uridine / xanthosine: S2 Table Metabolomics; for Acetyllysine: metabolite Acetyllysine; for N-acetyl-L-ornithine: metabolite N-acetyl-L-ornithine; for N-carbamoyl-L-aspartate: metabolite N-carbamoyl-L-aspartate; for NADPH: metabolite NADPH; for dAMP: metabolite dAMP; for dCMP: metabolite dCMP; for dTDP: metabolite dTDP; for dTMP: metabolite dTMP; for dTTP: metabolite dTTP; for dihydroorotate: metabolite dihydroorotate; for orotate: metabolite orotate; for DLH: peptide DLH; for DLS/SDL/SID: peptide DLS/SDL/SID; for PD: peptide PD; for PEE: peptide PEE; for PVNF: peptide PVNF; for 3-phosphoglycerate: metabolite 3-phosphoglycerate; for ADP-D-glucose: metabolite ADP-D-glucose; for ATP: metabolite ATP; for CDP: metabolite CDP; for CDP / D-sedoheptulose-1/7-phosphate / GMP / Octoluse Bisphosphate / UDP / UMP / UTP / citrate/isocitrate / dGMP/AMP / fumarate / glucose-1/6-phosphate / glycerate / guanine / guanosine / inosine / pyruvate / sarcosine/alanine / succinate/methylmalonic acid / uridine / xanthosine: change in metabolite level after compound treatment; for D-sedoheptulose-1/7-phosphate: metabolite D-sedoheptulose-1/7-phosphate; for FAD: metabolite FAD; for GMP: metabolite GMP; for NAD+: metabolite NAD+; for NADP+: metabolite NADP+; for Octoluse Bisphosphate: metabolite Octoluse Bisphosphate; for Pyroglutamic acid: metabolite Pyroglutamic acid; for UDP-D-glucose: metabolite UDP-D-glucose; for UDP-D-glucuronate: metabolite UDP-D-glucuronate; for UDP-N-acetyl-glucosamine: metabolite UDP-N-acetyl-glucosamine; for UDP: metabolite UDP; for UMP: metabolite UMP; for UTP: metabolite UTP; for a-ketoglutarate: metabolite a-ketoglutarate; for citrate/isocitrate: metabolite citrate/isocitrate; for cytidine: metabolite cytidine; for dATP: metabolite dATP; for dGMP/AMP: metabolite dGMP/AMP; for fumarate: metabolite fumarate; for glucose-1/6-phosphate: metabolite glucose-1/6-phosphate; for glycerate: metabolite glycerate; for guanine: metabolite guanine; for guanosine: metabolite guanosine; for hypoxanthine: metabolite hypoxanthine; for indole: metabolite indole; for inosine: metabolite inosine; for 2_3-Diphosphoglyceric acid / 4-phosphopantothenate / 6-phospho-D-gluconate / FMN / IMP / Pyrophosphate / Sedoheptoluse bisphosphate / cyclic-AMP / glutathione disulfide / lactate / myo-inositol: metabolite level change after treatment; for nicotinate: metabolite nicotinate; for ornithine: metabolite ornithine; for phosphoenolpyruvate: metabolite phosphoenolpyruvate; for pyruvate: metabolite pyruvate; for ribose-phosphate: metabolite ribose-phosphate; for sarcosine/alanine: metabolite sarcosine/alanine; for sn-glycerol-3-phosphate: metabolite sn-glycerol-3-phosphate; for succinate/methylmalonic acid: metabolite succinate/methylmalonic acid; for uridine: metabolite uridine; for xanthosine: metabolite xanthosine
P. falciparum = experiment: EC50 listed in S2 Table Metabolomics (used to set the concentration tested); assay type: cell-based; conditions: Plasmodium falciparum; EC50 used for Factor_XEC50 in metabolomics; read-out: EC50_nM

Cc1ccc(N2C3c4ccccc4N(S(=O)(=O)c4ccc(C)cc4)C2c2ccccc2N3S(=O)(=O)c2ccc(C)cc2)cc1 [MMV007160]
Acetyllysine [1]: 0.3548 | N-acetyl-L-ornithine [1]: 0.3325 | N-carbamoyl-L-aspartate [1]: 1.35 | NADPH [1]: 0.1135 | dAMP [1]: 0.01944 | dCMP [1]: 0.09265 | dTDP [1]: 0.2488 | dTMP [1]: 0.1305 | dTTP [1]: 0.2593 | dihydroorotate [1]: 1.082 | orotate [1]: 0.8469 | DLH [1]: 0.1334 | DLS/SDL/SID [1]: 0.2278 | PD [1]: -0.1641 | PEE [1]: -0.1118 | PVNF [1]: 0.2167 | 3-phosphoglycerate [1]: 0.1652 | ADP-D-glucose [1]: -0.01319 | ATP [1]: 0.3343 | CDP [1]: 0.1565 | D-sedoheptulose-1/7-phosphate [1]: 0.1973 | FAD [1]: -0.002001 | GMP [1]: 0.2649 | NAD+ [1]: 0 | NADP+ [1]: 0.07922 | Octoluse Bisphosphate [1]: 0.295 | Pyroglutamic acid [1]: 0.3777 | UDP-D-glucose [1]: 0.05012 | UDP-D-glucuronate [1]: 0.1524 | UDP-N-acetyl-glucosamine [1]: -0.001304 | UDP [1]: 0.1082 | UMP [1]: 0.008735 | UTP [1]: 0.1487 | a-ketoglutarate [1]: 0.5892 | citrate/isocitrate [1]: 0.4078 | cytidine [1]: 0.08232 | dATP [1]: 0.1879 | dGMP/AMP [1]: 0.0905 | fumarate [1]: 0.3202 | glucose-1/6-phosphate [1]: 0.8192 | glycerate [1]: 0.7953 | guanine [1]: 0.3293 | guanosine [1]: 0.8873 | hypoxanthine [1]: 0.7164 | indole [1]: 0.6321 | inosine [1]: 0.395 | 2_3-Diphosphoglyceric acid [1]: 0.1996 | 4-phosphopantothenate [1]: 0.1099 | 6-phospho-D-gluconate [1]: 0.1949 | FMN [1]: 0.06109 | IMP [1]: -0.03231 | Pyrophosphate [1]: 0.1406 | Sedoheptoluse bisphosphate [1]: 0.1591 | cyclic-AMP [1]: 0.1479 | glutathione disulfide [1]: 0.15 | lactate [1]: 0.5915 | myo-inositol [1]: 0.754 | nicotinate [1]: 0.5248 | ornithine [1]: 0.05899 | phosphoenolpyruvate [1]: 0.1975 | pyruvate [1]: -0.02541 | ribose-phosphate [1]: -0.3937 | sarcosine/alanine [1]: 0.2516 | sn-glycerol-3-phosphate [1]: -0.6224 | succinate/methylmalonic acid [1]: 0.03261 | uridine [1]: 0.5939 | xanthosine [1]: 0.5985 | EC50 (P. falciparum): 24.8 nM

CCCCCCOC(=O)C1=C(C)NC(=O)NC1c1ccccc1F (stereo not shown) [MMV007686]
Acetyllysine [1]: -0.6021 | N-acetyl-L-ornithine [1]: -0.5247 | N-carbamoyl-L-aspartate [1]: -0.1545 | NADPH [1]: -0.6448 | dAMP [1]: -0.475 | dCMP [1]: 0.2166 | dTDP [1]: -0.8182 | dTMP [1]: -0.71 | dTTP [1]: -0.2978 | dihydroorotate [1]: 0.04156 | orotate [1]: 0.1913 | DLH [1]: 0.3631 | DLS/SDL/SID [1]: 0.06173 | PD [1]: -0.2456 | PEE [1]: -0.1279 | PVNF [1]: 0.4591 | 3-phosphoglycerate [1]: 0.4561 | ADP-D-glucose [1]: 0.08489 | ATP [1]: -0.09097 | CDP [1]: -1.124 | D-sedoheptulose-1/7-phosphate [1]: -0.6707 | FAD [1]: -0.2456 | GMP [1]: 0.9608 | NAD+ [1]: -0.04958 | NADP+ [1]: -0.001559 | Octoluse Bisphosphate [1]: -0.1324 | Pyroglutamic acid [1]: 0.9271 | UDP-D-glucose [1]: -0.1029 | UDP-D-glucuronate [1]: -0.1902 | UDP-N-acetyl-glucosamine [1]: -0.1743 | UDP [1]: -1.121 | UMP [1]: 0.7368 | UTP [1]: -0.5193 | a-ketoglutarate [1]: 0.8749 | citrate/isocitrate [1]: 0.6672 | cytidine [1]: 0.271 | dATP [1]: -0.2157 | dGMP/AMP [1]: -0.5696 | fumarate [1]: 0.5304 | glucose-1/6-phosphate [1]: -0.0799 | glycerate [1]: 0.5979 | guanine [1]: -0.1143 | guanosine [1]: -0.2083 | hypoxanthine [1]: 0.8142 | indole [1]: 0.4434 | inosine [1]: 0.6048 | 2_3-Diphosphoglyceric acid [1]: -0.3849 | 4-phosphopantothenate [1]: -0.1203 | 6-phospho-D-gluconate [1]: -0.2727 | FMN [1]: -0.1451 | IMP [1]: -0.1074 | Pyrophosphate [1]: -0.313 | Sedoheptoluse bisphosphate [1]: -0.1202 | cyclic-AMP [1]: -0.174 | glutathione disulfide [1]: -0.2538 | lactate [1]: 0.3995 | myo-inositol [1]: 0.04912 | nicotinate [1]: 0.5888 | ornithine [1]: 0.3712 | phosphoenolpyruvate [1]: 0.6171 | pyruvate [1]: 0.7724 | ribose-phosphate [1]: 0.6092 | sarcosine/alanine [1]: 0.1752 | sn-glycerol-3-phosphate [1]: 0.5669 | succinate/methylmalonic acid [1]: 0.1316 | uridine [1]: 0.4569 | xanthosine [1]: 0.7187 | EC50 (P. falciparum): 106 nM
